According to the supplement of paper PMC10627819:

Assays:
S. aureus Newman [1] = assay: fitness (endpoint OD595 vs no drug) (fraction); higher = more growth
Summary of the method: (§1)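 Background-subtracted growth curves were the basis for fitness, taken as the optical density at entry into stationary phase over the robust mean of no-drug control wells. A cap of 1 was applied. The curves came from OD595 readings every 30 min for 14 h at 37 °C, in 384-well plates seeded at OD595 0.01 with 30 µl, or 55 µl for S. pneumoniae.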

S. pneumoniae D39V [2] = assay: as above
Summary of the method: as §1

B. subtilis 168 [3] = assay: as above
Summary of the method: as §1

S. aureus DSM 20231 = assay: Bliss interaction score (quartile over a dose matrix) (fitness difference); higher = more antagonism (negative = synergy)
Summary of the method: (§2)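 The Bliss score is observed fitness minus expected fitness, where the expected value is the product of single-drug fitness values inferred from combination data. Fitness is OD595 at entry into stationary phase normalised to the plate's robust no-drug mean and capped at 1. Scores are reported as quartiles spanning technical, biological and donor/recipient replicates.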

S. aureus Newman [4] = assay: as above
Summary of the method: as §2

S. pneumoniae D39V [5] = assay: as above
Summary of the method: as §2

B. subtilis 168 [6] = assay: as above
Summary of the method: as §2

[7] = first compound 0.125 µg/mL, partner 2 µg/mL
[8] = first compound 0.125 µg/mL, partner 4 µg/mL
[9] = first compound 12.5 µg/mL, partner 2 µg/mL, main component drawn
[10] = first compound 25 µg/mL, partner 2 µg/mL, main component drawn
[11] = first compound 50 µg/mL, partner 2 µg/mL, main component drawn
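Throughout, for Bliss interaction score (quartile over a dose matrix): first quartile when negative (synergy) and third quartile when positive (antagonism).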

CCC[C@@H]1C[C@@H](C(=O)N[C@@H]([C@H]2O[C@H](SC)[C@H](O)[C@@H](O)[C@H]2O)[C@H](C)Cl)N(C)C1 [Clindamycin] + CN[C@@H]1[C@H](O[C@H]2[C@H](O[C@H]3[C@H](O)[C@@H](O)[C@H](N=C(N)N)[C@@H](O)[C@@H]3N=C(N)N)O[C@@H](C)[C@]2(O)C=O)O[C@@H](CO)[C@H](O)[C@H]1O [Streptomycin]
fitness (S. aureus Newman [1]; first compound 0.0312 µg/mL, partner 1 µg/mL): 0.679 | fitness (S. aureus Newman [1]; first compound 0.0312 µg/mL, partner 2 µg/mL): 0.571 | fitness (S. aureus Newman [1]; first compound 0.125 µg/mL, partner 1 µg/mL): 0.123 | fitness (S. aureus Newman [1]; [7]): 0.0638 | fitness (S. aureus Newman [1]; [8]): 0.0582 | fitness (S. pneumoniae D39V [2]; first compound 0.0125 µg/mL, partner 2 µg/mL): 0.646 | fitness (S. pneumoniae D39V [2]; first compound 0.0125 µg/mL, partner 4 µg/mL): 0.69 | fitness (S. pneumoniae D39V [2]; first compound 0.0125 µg/mL, partner 8 µg/mL): 0.733 | fitness (S. pneumoniae D39V [2]; first compound 0.015 µg/mL, partner 2 µg/mL, one replicate): 0.889 | fitness (S. pneumoniae D39V [2]; first compound 0.015 µg/mL, partner 4 µg/mL): 0.837 | fitness (S. pneumoniae D39V [2]; first compound 0.015 µg/mL, partner 8 µg/mL): 0.786 | fitness (S. pneumoniae D39V [2]; first compound 0.015 µg/mL, partner 16 µg/mL, one replicate): 0.712 | fitness (S. pneumoniae D39V [2]; first compound 0.025 µg/mL, partner 2 µg/mL): 0.445 | fitness (S. pneumoniae D39V [2]; first compound 0.025 µg/mL, partner 4 µg/mL): 0.426 | fitness (S. pneumoniae D39V [2]; first compound 0.025 µg/mL, partner 8 µg/mL): 0.46 | fitness (S. pneumoniae D39V [2]; first compound 0.03 µg/mL, partner 2 µg/mL, one replicate): 0.767 | fitness (S. pneumoniae D39V [2]; first compound 0.03 µg/mL, partner 4 µg/mL): 0.71 | fitness (S. pneumoniae D39V [2]; first compound 0.03 µg/mL, partner 8 µg/mL): 0.646 | fitness (S. pneumoniae D39V [2]; first compound 0.03 µg/mL, partner 16 µg/mL, one replicate): 0.564 | fitness (S. pneumoniae D39V [2]; first compound 0.05 µg/mL, partner 2 µg/mL): 0.177 | fitness (S. pneumoniae D39V [2]; first compound 0.05 µg/mL, partner 4 µg/mL): 0.21 | fitness (S. pneumoniae D39V [2]; first compound 0.05 µg/mL, partner 8 µg/mL): 0.202 | fitness (S. pneumoniae D39V [2]; first compound 0.06 µg/mL, partner 2 µg/mL, one replicate): 0.621 | fitness (S. pneumoniae D39V [2]; first compound 0.06 µg/mL, partner 4 µg/mL): 0.586 | fitness (S. pneumoniae D39V [2]; first compound 0.06 µg/mL, partner 8 µg/mL): 0.544 | fitness (S. pneumoniae D39V [2]; first compound 0.06 µg/mL, partner 16 µg/mL, one replicate): 0.424 | fitness (B. subtilis 168 [3]; first compound 0.0039 µg/mL, partner 2 µg/mL, one replicate): ≥ 1 | fitness (B. subtilis 168 [3]; first compound 0.0039 µg/mL, partner 4 µg/mL, one replicate): ≥ 1 | fitness (B. subtilis 168 [3]; first compound 0.0039 µg/mL, partner 8 µg/mL, one replicate): 0.994 | fitness (B. subtilis 168 [3]; first compound 0.0078 µg/mL, partner 2 µg/mL, one replicate): 0.855 | fitness (B. subtilis 168 [3]; first compound 0.0078 µg/mL, partner 4 µg/mL, one replicate): 1 | fitness (B. subtilis 168 [3]; first compound 0.0078 µg/mL, partner 8 µg/mL, one replicate): 0.85 | fitness (B. subtilis 168 [3]; first compound 0.0156 µg/mL, partner 2 µg/mL, one replicate): 0.895 | fitness (B. subtilis 168 [3]; first compound 0.0156 µg/mL, partner 4 µg/mL, one replicate): 0.951 | fitness (B. subtilis 168 [3]; first compound 0.0156 µg/mL, partner 8 µg/mL, one replicate): 0.853 | fitness (B. subtilis 168 [3]; first compound 0.0625 µg/mL, partner 2 µg/mL): 0.531 | fitness (B. subtilis 168 [3]; first compound 0.0625 µg/mL, partner 4 µg/mL): 0.082 | fitness (B. subtilis 168 [3]; first compound 0.0625 µg/mL, partner 8 µg/mL): 0.0325 | fitness (B. subtilis 168 [3]; [7]): 0.398 | fitness (B. subtilis 168 [3]; [8]): 0.0693 | fitness (B. subtilis 168 [3]; first compound 0.125 µg/mL, partner 8 µg/mL): 0.0279 | fitness (B. subtilis 168 [3]; first compound 0.25 µg/mL, partner 2 µg/mL): 0.105 | fitness (B. subtilis 168 [3]; first compound 0.25 µg/mL, partner 4 µg/mL): 0.0596 | fitness (B. subtilis 168 [3]; first compound 0.25 µg/mL, partner 8 µg/mL): 0.0359 | Bliss interaction score (S. aureus DSM 20231): -0.0299 | Bliss interaction score (S. aureus Newman [4]): -0.0908 | Bliss interaction score (S. pneumoniae D39V [5]): -0.0581 | Bliss interaction score (B. subtilis 168 [6]): -0.101

O=C(O[C@@H]1Cc2c(O)cc(O)cc2O[C@@H]1c1cc(O)c(O)c(O)c1)c1cc(O)c(O)c(O)c1 [EGCG] + CC(C1CCC(C(O1)OC2C(CC(C(C2O)OC3C(C(C(CO3)(C)O)NC)O)N)N)N)NC [Gentamicin]
fitness (S. aureus Newman [1]; first compound 12.5 µg/mL, partner 0.375 µg/mL, one replicate, main component drawn): 0.802 | fitness (S. aureus Newman [1]; first compound 12.5 µg/mL, partner 0.5 µg/mL, main component drawn): 0.738 | fitness (S. aureus Newman [1]; first compound 12.5 µg/mL, partner 0.75 µg/mL, one replicate, main component drawn): 0.773 | fitness (S. aureus Newman [1]; first compound 12.5 µg/mL, partner 1 µg/mL, main component drawn): 0.795 | fitness (S. aureus Newman [1]; first compound 12.5 µg/mL, partner 1.5 µg/mL, one replicate, main component drawn): 0.251 | fitness (S. aureus Newman [1]; [9]): 0.797 | fitness (S. aureus Newman [1]; first compound 25 µg/mL, partner 0.375 µg/mL, one replicate, main component drawn): 0.805 | fitness (S. aureus Newman [1]; first compound 25 µg/mL, partner 0.5 µg/mL, main component drawn): 0.69 | fitness (S. aureus Newman [1]; first compound 25 µg/mL, partner 0.75 µg/mL, one replicate, main component drawn): 0.762 | fitness (S. aureus Newman [1]; first compound 25 µg/mL, partner 1 µg/mL, main component drawn): 0.754 | fitness (S. aureus Newman [1]; first compound 25 µg/mL, partner 1.5 µg/mL, one replicate, main component drawn): 0.0762 | fitness (S. aureus Newman [1]; [10]): 0.766 | fitness (S. aureus Newman [1]; first compound 50 µg/mL, partner 0.375 µg/mL, one replicate, main component drawn): 0.993 | fitness (S. aureus Newman [1]; first compound 50 µg/mL, partner 0.5 µg/mL, main component drawn): 0.584 | fitness (S. aureus Newman [1]; first compound 50 µg/mL, partner 0.75 µg/mL, one replicate, main component drawn): 0.62 | fitness (S. aureus Newman [1]; first compound 50 µg/mL, partner 1 µg/mL, main component drawn): 0.704 | fitness (S. aureus Newman [1]; first compound 50 µg/mL, partner 1.5 µg/mL, one replicate, main component drawn): 0 | fitness (S. aureus Newman [1]; [11]): 0.709 | fitness (S. pneumoniae D39V [2]; [9]): 0.922 | fitness (S. pneumoniae D39V [2]; first compound 12.5 µg/mL, partner 4 µg/mL, main component drawn): 0.947 | fitness (S. pneumoniae D39V [2]; first compound 12.5 µg/mL, partner 8 µg/mL, main component drawn): 0.936 | fitness (S. pneumoniae D39V [2]; [10]): 0.947 | fitness (S. pneumoniae D39V [2]; first compound 25 µg/mL, partner 4 µg/mL, main component drawn): ≥ 1 | fitness (S. pneumoniae D39V [2]; first compound 25 µg/mL, partner 8 µg/mL, main component drawn): 0.945 | fitness (S. pneumoniae D39V [2]; [11]): 0.913 | fitness (S. pneumoniae D39V [2]; first compound 50 µg/mL, partner 4 µg/mL, main component drawn): 0.989 | fitness (S. pneumoniae D39V [2]; first compound 50 µg/mL, partner 8 µg/mL, main component drawn): 0.942 | fitness (B. subtilis 168 [3]; first compound 6.25 µg/mL, partner 0.0625 µg/mL, main component drawn): 0.944 | fitness (B. subtilis 168 [3]; first compound 6.25 µg/mL, partner 0.125 µg/mL, main component drawn): 0.814 | fitness (B. subtilis 168 [3]; first compound 25 µg/mL, partner 0.25 µg/mL, main component drawn): 0.142 | Bliss interaction score (S. aureus DSM 20231; main component drawn): 0.0682 | Bliss interaction score (S. aureus Newman [4]; main component drawn): -0.123 | Bliss interaction score (S. pneumoniae D39V [5]; main component drawn): 0.09 | Bliss interaction score (B. subtilis 168 [6]; main component drawn): 0.329
